Measured values from article PMC10542788, “Discovery of a cystathionine γ-lyase (CSE) selective inhibitor targeting active-site pyridoxal 5′-phosphate (PLP) via Schiff base formation” (Scientific Reports, 2023).

Key:
[1] = test system: methionine γ-lyase (MGL); parameters: method as in PMID 12920135; settings: cited from earlier work
[2] = test system: MGL; experiment: MGL inhibition, HSip-1 fluorescence; format: biochemical; settings: 30 µM
Experimental: (§1) The selectivity of 1, 2 and PAG for rCSE over other RSS-producing enzymes, CBS and 3MST, was examined (Fig. 4a). CBS is a PLP-dependent enzyme, like CSE, and produces H2S from cysteine and homocysteine as substrates. 3MST is also an H2S-producing enzyme, but is not PLP-dependent and uses 3-mercaptopyruvate as a substrate. The amount of H2S produced by CBS or 3MST was evaluated in the presence or absence of the inhibitor by measuring the fluorescence intensity of HSip-1. […] We also examined the inhibitory activity towards two other PLP-dependent enzymes, MGL and ALT. MGL metabolizes L-methionine to α-ketobutyric acid, methanethiol and ammonia, and is inhibited by PAG[14]. MGL also produces H2S from homocysteine as a substrate, and this activity of MGL can be measured by fluorescence detection with HSip-1. […] The enzymatic activity of ALT can be assessed by means of a coupled assay using the reduction of pyruvate to L-lactate with lactate dehydrogenase and NADH and measuring the change in absorption of NADH.
10 µL of 200 µM homocysteine in 30 mM HEPES (pH 7.4) was added to 10 µL of a solution containing 20 µg/mL MGL (Sigma-Aldrich), 100 µM PLP, 1 µM HSip-1, 0.005% tween 20 and various concentrations of the inhibitor (0.5% DMSO as a cosolvent). The mixture was incubated at 25 °C for 100 min and the fluorescence intensity of HSip-1 was measured with a microplate reader.

[3] = test system: L-alanine transaminase (ALT); parameters: method as in PMID 7364752; settings: cited from earlier work
[4] = test system: ALT; experiment: ALT inhibition, coupled absorbance assay (NADH, 340 nm); format: biochemical; settings: 30 µM
Experimental: as §1
An alanine aminotransferase activity assay kit (BioVision, Inc.) was used to measure the activity of ALT. A mixture of L-alanine, NADH, LDH (lactate dehydrogenase) and ALT was incubated at 37 °C for 15 min, then α-ketoglutarate was added to the mixture and the absorbance at 340 nm was measured with a microplate reader.

[5] = target: T1, rat CSE (rCSE) (Rattus norvegicus, UniProt P18757); experiment: rCSE inhibition, H2S detection by fluorescence of HSip-1; format: biochemical; settings: for IC50: fluorescence assay with HSip-1, 1.5 mM cysteine, 100 μM PLP, mean ± S.E., read-out: IC50, inhibitory activity towards rCSE
T1 construct: His-tag (C); made in house; host or cells: E. coli BL21
Experimental: The developed assay system employs a plate reader to detect H2S production by CSE as a fluorescence signal in a solution containing 30 μg/mL rat CSE (rCSE), 1 μM HSip-1, 100 μM pyridoxal-5′-phosphate (PLP) and 1.5 mM cysteine (a substrate) in a 384-well plate format (Fig. 1b). A large amount of rCSE was expressed in E. coli and purified on a Ni Sepharose 6 Fast Flow module. We then performed screening of a chemical library consisting of 161,600 compounds (from the Drug Discovery Initiative, the University of Tokyo) for CSE inhibitors (Fig. 1c). […] Then, a confirmation test for repeatability (n = 4) of the 160 compounds selected in the 1st screening was performed to exclude false-positives. In this step, we also excluded cysteine-reactive compounds by changing the addition order of the rCSE and cysteine (substrate) solutions. In other words, in the 1st screening, the enzyme solution was firstly added to each library compound, while in the confirmation test for repeatability of the hit compounds in the 1st screening, we firstly added the cysteine solution to each compound. This enabled us to identify and exclude cysteine-reactive compounds, based on their reaction with the added cysteine. These procedures left 80 compounds showing both more than 40% inhibition at 10 µM and similar % inhibition of rCSE irrespective of the addition order of the rCSE and cysteine solutions. In the 2nd screening, we examined the reactivity of these 80 compounds with H2S using an H2S donor[17] to exclude H2S-reactive compounds. […] In this assay, we selected 13 compounds which were non-reactive to H2S, but one was relatively unstable and two of them were the same compound, so that 11 compounds were finally selected. These compounds included some hydrazine and hydrazide derivatives, so we performed titration assay of the selected 11 compounds together with 9 commercially available hydrazine and hydrazide compounds (Supplementary Fig. S3) and calculated the half-maximal (50%) inhibitory concentration (IC50) of each compound.
The fluorescence intensity of HSip-1 was measured (λex = 490 nm, λem = 510 nm) with a microplate reader (EnVision, Perkin Elmer).
10 µL of 1.5 mM cysteine solution in 30 mM HEPES (pH 7.4) was added to 10 µL of solution containing 30 µg/mL rCSE, 100 µM PLP, 1 µM HSip-1, 0.005% tween 20 and the test compound (0.5% DMSO as a cosolvent). The mixture was incubated at 25 °C for 3 h and the fluorescence intensity of HSip-1 was measured with a microplate reader.

Structure (SMILES) | inhibition of MGL [1] | inhibitory activity towards MGL / selectivity for CSE over MGL [2] | inhibition of ALT [3] | inhibitory activity towards ALT / selectivity for CSE over ALT [4] | selectivity for CSE over other enzymes (CBS, 3MST, MGL, ALT) ([5]; 3 µM) | IC50 [5] [µM]
C#CCC(N)C(=O)O (racemic) [PAG, D,L-Propargylglycine, reference compound] | inhibited | inhibited both MGL and ALT | inhibited | inhibited both MGL and ALT | – | –
CNC(=O)C(=O)NN [Compound 2] | – | some inhibitory activity towards MGL and ALT | – | some inhibitory activity towards MGL and ALT | high selectivity for CSE | 0.43 ± 0.02
CCNC(=O)C(=O)NN [Compound 3] | – | – | – | – | – | > 100
NNC(=O)C(=O)Nc1ccccc1 [Compound 4] | – | – | – | – | – | > 100
